Our source for the Ki values is patent publication US20040024024A1, “Aromatic sulfone hydroxamates and their use as protease inhibitors” (priority 2001, published 2004).

In one test the target is T1, Human recombinant MMP-2 (Homo sapiens, UniProt P08253).
T1 construct: made in house; host or cells: MMP-2-transfected p2AHT2 cells
T1 sequence (P08253 110-660): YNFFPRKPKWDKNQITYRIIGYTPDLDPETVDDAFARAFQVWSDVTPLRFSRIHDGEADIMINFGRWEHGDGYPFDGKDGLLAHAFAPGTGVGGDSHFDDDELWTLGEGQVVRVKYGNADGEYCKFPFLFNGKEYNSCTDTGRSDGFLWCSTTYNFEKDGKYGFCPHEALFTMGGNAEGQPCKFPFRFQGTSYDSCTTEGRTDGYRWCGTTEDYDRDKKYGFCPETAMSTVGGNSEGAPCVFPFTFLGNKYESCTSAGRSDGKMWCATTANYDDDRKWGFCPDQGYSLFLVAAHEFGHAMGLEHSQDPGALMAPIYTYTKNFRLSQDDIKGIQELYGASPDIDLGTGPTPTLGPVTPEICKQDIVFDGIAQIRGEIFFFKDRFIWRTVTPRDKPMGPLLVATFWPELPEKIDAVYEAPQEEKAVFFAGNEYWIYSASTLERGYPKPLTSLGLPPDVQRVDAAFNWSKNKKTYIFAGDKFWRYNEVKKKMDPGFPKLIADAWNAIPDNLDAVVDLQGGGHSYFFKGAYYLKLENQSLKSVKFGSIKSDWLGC
Description: In vitro MMP inhibition, Ki determination (fluorogenic substrate II). Format: biochemical.

A further test addresses T2, Human recombinant MMP-9 (Homo sapiens, UniProt P14780).
T2 construct: made in house; host or cells: MMP-9-transfected HT1080 cells (spent media)
Described as above. It counts as biochemical. The gist of the method: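 MMP-9 proenzyme purified from transfected HT1080 cell media, activated with APMA, trypsin or recombinant MMP-3; hydroxamates diluted in pH 7.5 Tris/NaCl/CaCl2 buffer. Cleavage of 4 μM MCA/Dpa substrate II followed by fluorescence (ex 330/em 420 nm), 1 h at room temperature. Ki from Morrison-equation fit, substrate at/below Km, uncorrected.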

Where [1] appears, read: substrate (II) 4 μM, 1 hr room temperature, apparent Ki, values in parenthesis.

pKi: −log10 of the molar value.

T2 sequence (P14780 107-707 limits assumed): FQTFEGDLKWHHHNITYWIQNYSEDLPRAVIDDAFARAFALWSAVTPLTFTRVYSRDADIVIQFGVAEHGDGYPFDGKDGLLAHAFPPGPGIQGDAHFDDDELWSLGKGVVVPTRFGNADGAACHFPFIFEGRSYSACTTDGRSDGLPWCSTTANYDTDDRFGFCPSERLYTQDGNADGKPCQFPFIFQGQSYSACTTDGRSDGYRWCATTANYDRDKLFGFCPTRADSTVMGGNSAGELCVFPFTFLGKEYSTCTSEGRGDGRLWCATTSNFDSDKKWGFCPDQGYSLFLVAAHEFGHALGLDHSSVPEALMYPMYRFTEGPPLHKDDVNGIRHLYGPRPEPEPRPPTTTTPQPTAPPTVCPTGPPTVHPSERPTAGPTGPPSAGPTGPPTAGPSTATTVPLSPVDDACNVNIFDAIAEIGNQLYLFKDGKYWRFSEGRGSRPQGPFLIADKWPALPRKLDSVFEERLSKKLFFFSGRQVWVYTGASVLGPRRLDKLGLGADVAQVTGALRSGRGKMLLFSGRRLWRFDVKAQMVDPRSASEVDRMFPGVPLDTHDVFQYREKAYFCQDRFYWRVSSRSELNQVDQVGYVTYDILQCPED

Regarding `CCCCc1ccc(COc2ccc(S(=O)(=O)C3(C(=O)NO)CCOCC3)cc2)cn1` [Example 551], the pKi on Human recombinant MMP-2 (value in parentheses) was 8.29; on Human recombinant MMP-9 (value in parentheses) it was 7.32.
`COCCN1CCC(C(=O)NO)(S(=O)(=O)c2ccc(OCCCc3cccc(-c4ccc(Cl)cc4)c3)cc2)CC1` [Example 50]: the pKi on Human recombinant MMP-2 (setting [1]) was 5.95; at Human recombinant MMP-9 (setting [1]), 6.52.
As for `COCCN1CCC(C(=O)NO)(S(=O)(=O)c2ccc(OCCc3cccc(-c4ccccc4F)c3)cc2)CC1` [Example 540], the negative-log Ki (pKi) was 6.57 on Human recombinant MMP-2 (value in parentheses) and 6.16 at Human recombinant MMP-9 (value in parentheses).
Consider `O=C(NO)C1(S(=O)(=O)c2ccc(OCCCc3nc(-c4ccc(OC(F)(F)F)cc4)no3)cc2)CCN(Cc2ccccc2)CC1` [Example 93], for which the pKi on Human recombinant MMP-2 (value in parenthesis) is 6.17; at Human recombinant MMP-9 (value in parenthesis), 5.95.
Take `COCCN1CCC(C(=O)NO)(S(=O)(=O)c2ccc(OCCCc3nc(-c4ccc(Br)cc4C)no3)cc2)CC1` [Example 135]: the pKi at Human recombinant MMP-2 (value in parenthesis) is 7.23; on Human recombinant MMP-9 (value in parenthesis) it was 6.34.
The like results for `COCCN1CCC(C(=O)NO)(S(=O)(=O)c2ccc(OCCCc3nc(-c4ccc(C5(c6ccccc6)CC5)cc4)no3)cc2)CC1` [Example 185] were, in that order, 6.94 and 6.66.
For `O=C(NO)C1(S(=O)(=O)c2ccc(OCCCc3cccc(-c4ccc(F)c(F)c4)c3)cc2)CCOCC1` [Example 170], the pKi was 5.85 at Human recombinant MMP-2 (value in parenthesis) and 5.82 on Human recombinant MMP-9 (value in parenthesis).
The like results for `O=C(NO)C1(S(=O)(=O)c2ccc(OCCc3cccc(-c4cc(F)cc(F)c4)c3)cc2)CCOCC1` [Example 110] were, in that order, 6.95 and 5.36.
In the case of `O=C(NO)C1(S(=O)(=O)c2ccc(OCCc3cccc(-c4ccccc4Cl)c3)cc2)CCOCC1` [Example 114], the pKi on Human recombinant MMP-2 (value in parenthesis) was 5.82; at Human recombinant MMP-9 (value in parenthesis), 5.31.
The like results for `NC(=O)c1cccc(-c2noc(CCCOc3ccc(S(=O)(=O)C4(C(=O)NO)CCN(C5CC5)CC4)cc3)n2)c1` [Example 129] were, in that order, 7.30 and 6.96.
The like results for `O=C(NO)C1(S(=O)(=O)c2ccc(OCCCc3cccc(-c4cc(Cl)cc(Cl)c4)c3)cc2)CCOCC1` [Example 172] were, in that order, < 5.00 and 5.03.
The matching figures for `O=C(NO)C1(S(=O)(=O)c2ccc(OCCc3cccc(-c4cc(Cl)cc(Cl)c4)c3)cc2)CCOCC1` [Example 126]: 5.20 and < 5.00.
Take `COCCN1CCC(C(=O)NO)(S(=O)(=O)c2ccc(OCCc3cccc(-c4ccc(Cl)cc4)c3)cc2)CC1` [Example 547]: the pKi on Human recombinant MMP-2 (value in parentheses) was 6.14; on Human recombinant MMP-9 (value in parentheses) it was 5.73.
The matching figures for `COCCN1CCC(C(=O)NO)(S(=O)(=O)c2ccc(OCCc3cccc(-c4cccc(F)c4)c3)cc2)CC1` [Example 545]: 6.51 and 6.04.
The matching figures for `O=C(NO)C1(S(=O)(=O)c2ccc(OCCc3ccccn3)cc2)CCOCC1` [Example 556]: 7.17 and 6.67.
The like results for `O=C(NO)C1(S(=O)(=O)c2ccc(OCCc3cccnc3)cc2)CCOCC1` [Example 557] were, in that order, 8.19 and 7.47.
With `COCCN1CCC(C(=O)NO)(S(=O)(=O)c2ccc(OCCNC(=O)c3cc4ccccc4o3)cc2)CC1` [Example 553], the pKi is 8.11 at Human recombinant MMP-2 (value in parentheses) and 7.15 on Human recombinant MMP-9 (value in parentheses).
The matching figures for `O=C(NCCSc1ccc(S(=O)(=O)C2(C(=O)NO)CCN(C3CC3)CC2)cc1)c1nc2ccccc2s1` [Example 541]: 6.52 and 6.57.
The matching figures for `COCCN1CCC(C(=O)NO)(S(=O)(=O)c2ccc(OCCCc3cccc(-c4ccccc4F)c3)cc2)CC1` [Example 512]: 6.12 and 7.59.
The like results for `CCC(=O)c1cccc(CCCOc2ccc(S(=O)(=O)C3(C(=O)NO)CCOCC3)cc2)c1` [Example 528] were, in that order, 7.08 and 6.62.
In the case of `COCCN1CCC(C(=O)NO)(S(=O)(=O)c2ccc(OCCc3cccc(-c4ccc(F)c(F)c4)c3)cc2)CC1` [Example 549], the pKi at Human recombinant MMP-2 (value in parentheses) was 6.30; on Human recombinant MMP-9 (value in parentheses) it was 5.75.
As to `O=C(NO)C1(S(=O)(=O)c2ccc(OCCCOc3cncnc3)cc2)CCOCC1` [Example 559], the negative logarithm of the Ki (pKi) is 7.93 on Human recombinant MMP-2 (value in parentheses) and 7.24 on Human recombinant MMP-9 (value in parentheses).
In the case of `Cc1cc(-c2cccc(CCCOc3ccc(S(=O)(=O)C4(C(=O)NO)CCOCC4)cc3)c2)ccc1Cl` [Example 166], the negative logarithm of the Ki (pKi) on Human recombinant MMP-2 (value in parenthesis) is 5.09; on Human recombinant MMP-9 (value in parenthesis) it was 5.06.
Take `CCCC(=O)CCCOc1ccc(S(=O)(=O)C2(C(=O)NO)CCOCC2)cc1` [Example 505]: the negative-log Ki (pKi) on Human recombinant MMP-2 (value in parentheses) was 8.59; at Human recombinant MMP-9 (value in parentheses), 7.99.
The like results for `COCCN1CCC(C(=O)NO)(S(=O)(=O)c2ccc(OCCc3cccc(-c4ccc(F)cc4F)c3)cc2)CC1` [Example 546] were, in that order, 6.37 and 5.90.
Turning to `COCCN1CCC(C(=O)NO)(S(=O)(=O)c2ccc(OCCc3cccc(-c4ccccc4)c3)cc2)CC1` [Example 45], the pKi on Human recombinant MMP-2 (setting [1]) was 6.65; at Human recombinant MMP-9 (setting [1]), 6.30.
Take `O=C(NCCSc1ccc(S(=O)(=O)C2(C(=O)NO)CCN(C3CC3)CC2)cc1)c1cc2ccccc2o1` [Example 542]: the pKi on Human recombinant MMP-2 (value in parentheses) is 6.63; on Human recombinant MMP-9 (value in parentheses) it was 6.04.
On to `Cc1cc(-c2cccc(CCCOc3ccc(S(=O)(=O)C4(C(=O)NO)CCOCC4)cc3)c2)ccc1F` [Example 168], for which the pKi at Human recombinant MMP-2 (value in parenthesis) was 5.26; at Human recombinant MMP-9 (value in parenthesis) it was 5.19.
The like results for `O=C(NO)C1(S(=O)(=O)c2ccc(OCCc3cccc(-c4cccc(F)c4)c3)cc2)CCOCC1` [Example 111] were, in that order, 6.11 and 5.57.
On to `COCCN1CCC(C(=O)NO)(S(=O)(=O)c2ccc(OCCc3cccc(-c4ccncc4)c3)cc2)CC1` [Example 538], for which the pKi at Human recombinant MMP-2 (value in parentheses) is 7.61; on Human recombinant MMP-9 (value in parentheses), 6.93.
With `O=C(NO)C1(S(=O)(=O)c2ccc(OCCCc3ccc(F)c(-c4ccccc4)c3)cc2)CCOCC1` [Example 504], the figures for the pKi at Human recombinant MMP-2 (value in parentheses) and at Human recombinant MMP-9 (value in parentheses) were 6.36 and 5.64, respectively.
As to `O=C(NO)C1(S(=O)(=O)c2ccc(OCCCOCc3ccncc3)cc2)CCOCC1` [Example 555], the values for the pKi on Human recombinant MMP-2 (value in parentheses) and at Human recombinant MMP-9 (value in parentheses) were 8.47 and 7.30, respectively.
Consider `O=C(NO)C1(S(=O)(=O)c2ccc(OCCCc3cccc(-c4ccc(O)cc4)c3)cc2)CCOCC1` [Example 529], for which the pKi on Human recombinant MMP-2 (value in parentheses) was 5.45; at Human recombinant MMP-9 (value in parentheses) it was 5.73.
Turning to `COCCN1CCC(C(=O)NO)(S(=O)(=O)c2ccc(OCCCc3cccc(-c4ccc(F)c(F)c4)c3)cc2)CC1` [Example 52], the pKi at Human recombinant MMP-2 (setting [1]) was 6.27; at Human recombinant MMP-9 (setting [1]), 6.21.
As for `O=C(NO)C1(S(=O)(=O)c2ccc(OCCCc3cccc(-c4ccc(Cl)cc4Cl)c3)cc2)CCOCC1` [Example 171], the negative logarithm of the Ki (pKi) on Human recombinant MMP-2 (value in parenthesis) is 5.50; on Human recombinant MMP-9 (value in parenthesis), 5.18.
For `O=C(NO)C1(S(=O)(=O)c2ccc(OCCOc3cncnc3)cc2)CCOCC1` [Example 554], the negative-log Ki (pKi) is 7.21 at Human recombinant MMP-2 (value in parentheses) and 6.35 on Human recombinant MMP-9 (value in parentheses).
The matching figures for `O=C(NO)C1(S(=O)(=O)c2ccc(OCCc3ccc(-c4cccc(O)c4)cc3)cc2)CCOCC1` [Example 532]: 6.13 and 5.88.
The matching figures for `C#Cc1ccc(-c2cccc(CCCOc3ccc(S(=O)(=O)C4(C(=O)NO)CCN(CCOC)CC4)cc3)c2)cc1` [Example 646]: 6.54 and 7.12.
Take `Cc1ccc(-c2cccc(CCOc3ccc(S(=O)(=O)C4(C(=O)NO)CCOCC4)cc3)c2)cc1C` [Example 117]: the negative-log Ki (pKi) at Human recombinant MMP-2 (value in parenthesis) is 5.44; on Human recombinant MMP-9 (value in parenthesis), 5.00.
Regarding `CN1CCC(C(=O)NO)(S(=O)(=O)c2ccc(SCCNC(=O)c3cc4ccccc4o3)cc2)CC1` [Example 536], the figures for the pKi on Human recombinant MMP-2 (value in parentheses) and on Human recombinant MMP-9 (value in parentheses) were 6.13 and 5.47, respectively.
As for `COCCN1CCC(C(=O)NO)(S(=O)(=O)c2ccc(OCCCc3nc(-c4ccc(CC(C)C)cc4C)no3)cc2)CC1` [Example 128], the pKi was 5.95 at Human recombinant MMP-2 (value in parenthesis) and 5.45 at Human recombinant MMP-9 (value in parenthesis).
As for `COCCN1CCC(C(=O)NO)(S(=O)(=O)c2ccc(OCCCc3cncc(-c4ccccc4)c3)cc2)CC1` [Example 508], the values for the pKi on Human recombinant MMP-2 (value in parentheses) and at Human recombinant MMP-9 (value in parentheses) were 7.64 and 6.80, respectively.
Consider `COCCN1CCC(C(=O)NO)(S(=O)(=O)c2ccc(OCCCc3nc(-c4cccc5ccccc45)no3)cc2)CC1` [Example 199], for which the pKi at Human recombinant MMP-2 (value in parenthesis) was 6.64; at Human recombinant MMP-9 (value in parenthesis), 7.23.
On to `O=C(NO)C1(S(=O)(=O)c2ccc(OCCCc3cccc(-c4cccc(O)c4)c3)cc2)CCOCC1` [Example 530], for which the results for the pKi at Human recombinant MMP-2 (value in parentheses) and at Human recombinant MMP-9 (value in parentheses) were 6.16 and 6.66, respectively.
In the case of `Cc1cc(-c2cccc(CCOc3ccc(S(=O)(=O)C4(C(=O)NO)CCOCC4)cc3)c2)ccc1Cl` [Example 118], the pKi on Human recombinant MMP-2 (value in parenthesis) is 5.58; at Human recombinant MMP-9 (value in parenthesis) it was < 5.00.
On to `O=C(NCCOc1ccc(S(=O)(=O)C2(C(=O)NO)CCOCC2)cc1)c1c[nH]c2ccccc12` [Example 562], for which the pKi at Human recombinant MMP-2 (value in parentheses) was 6.62; at Human recombinant MMP-9 (value in parentheses) it was 6.10.
